According to patent US8476196B2, “Control of harmful algal blooms by induction of programmed cell death” (University of South Florida, priority 2009, dated 2013):

Tests used:
[1] = test system: Karenia brevis (Piney Island A2); experiment: K. brevis culture treatment, intact cell counts (light microscope / FlowCam); assay type: cell-based; settings: 20 μM final concentration, higher-density cultures, T=2 days, two replicates
[2] = test system: Karenia brevis (Piney Island A2); experiment: as above; assay type: cell-based; settings: for cell appearance in FlowCam images: 100 μM final concentration, treated flasks
Description: The present inventors have determined that NO may be used to trigger cell death in Karenia brevis and potentially other harmful algae. The response to low concentrations occurs within 24 hours and varies with concentration. To describe the dose response, cultures of K. brevis (Piney Island A2) were exposed to varied concentrations of the nitric oxide donor diethylamine NONOate sodium salt hydrate or DEA NONOate (IUPAC name: sodium N-(diethylamino)-N-oxidonitrous amide).
Work described by Chung et al. (2008) employed 500 μM DEA NO to elicit ScDSP-1 expression in Skeletonema costatum. The present inventors sought to determine the low end of the dose response, if any effect, in K. brevis. Trials therefore tested the effect of DEA NONOate concentrations ranging from 100 μM to 0.1 μM. For each trial, K. brevis cultures were grown in L1 media. Cultures were diluted 1:1 from a stock flask into a total volume of 125 mL in 250-mL acid washed and autoclaved flasks. Cultures were allowed to recover for 2-4 days prior to treatment. Immediately prior to treatment, DEA NONOate (Sigma-Aldrich, St. Louis, Mo.) was dissolved from its powdered form in sterile nuclease-free water. The solution was made to a concentration of 1 mg mL^−1. Two trials were performed to delineate responses to different concentrations of NO. In each case, the appropriate volume of DEA NONO solution was added and the cultured swirled by hand gently to mix the solution. Control flasks were also used for each trial; these received only an aliquot of the water used for dissolving DEA NONOate, equal to the largest volume administered to treatment flasks for that trial. At the concentration of 1 mg mL^−1, volumes of DEA NONO solution added ranged from 1.9 mL to 1.9 μL for 100 μM to 0.1 μM final concentrations in culture flasks. Three replicate flasks were used for each concentration and negative controls. Prior to treatment and at each sampling point after treatment, 5 mL of culture were removed for counting. A 1 mL aliquot was imaged/counted on the FlowCam flow-through microscope and the remainder was stained with Lugol's iodine solution and counted by light microscope on a gridded Sedgewick counting slide (1 mm^2 grid size). For slide counting, 50-70 grid squares were counted for each sample. Although counts were obtained for most samples by FlowCam and light microscopy, the light microscope counts were used for recording quantitative data while FlowCam images were used as a record of cell appearances.

caspase-like activity [3] = experiment: Caspase-like activity in K. brevis, summary statements; assay type: cell-based, Karenia brevis
Description: (§1) Since caspase activity is a hallmark of PCD, experiments were conducted to examine caspase-like enzyme activity in K. brevis. The activity of enzymes that are similar to caspase-3 and caspase-8 were examined. The assays use a commercially available kit (MBL International, Woburn, Mass.) to measure the protease activity specific to certain amino acid sequence motifs. A short time series was performed to measure upregulation of caspase-like activity due to exposure to NO. NO was produced from the compound DEA-NONOate (use of this is previously described herein). […] Based on these findings, there is at least a 2-3 fold up-regulation of caspase-like activity due to NO exposure at 50-100 micromolar. This provides evidence that K. brevis death due to NO exposure is mediated by PCD pathways in the cells. This activity appears rapidly (within 20 minutes), and can decline rapidly (by 120 minutes). The decline is presumably due to actual death of the cells, since at the 120 minute mark, many cells were already in the process of lysis when viewed microscopically.

ScDSP-1 = settings: Skeletonema costatum; cited from earlier work
caspase 3 = experiment: Colorimetric caspase-like enzyme activity in K. brevis, caspase 3; assay type: cell-based, Karenia brevis
Description: as §1

caspase 8 = experiment: Colorimetric caspase-like enzyme activity in K. brevis, caspase 8; assay type: cell-based, Karenia brevis
Description: as §1

caspase-like activity [4] = settings: pretreatment before supplementation of NO donors; cited from earlier work
[5] = Experiment 1, 100 uM NO, 60 min
[6] = Experiment 1, 100 uM NO, 120 min

For CCN(CC)N([O-])N=O.[Na+] [DEA NONOate, sodium N-(diethylamino)-N-oxidonitrous amide, reference compound], the “decrease of average intact cell count from pre-treatment counts” value [1] was 98.6%, the “cell appearance in FlowCam images” value [2] was “all particles imaged by the FlowCam resembled the disrupted cells” and the “cell appearance in FlowCam images” value ([2]; listed as DEA NONO) was “disrupted”. For the same compound, the intact cells present ([2]; 100 μM, 1 day post-treatment) was “no intact cells were observed” and the intact cells present ([2]; 100 μM, 2 days post-treatment) was “no intact cells were observed”.
With CC(C)C[C@H](NC(=O)[C@H]1O[C@@H]1C(=O)O)C(=O)NCCCCN=C(N)N [E-64, L-transepoxysuccinyl-leucylamido-[4-guanidino]butane, reference compound] the “protection against NO-induced mortality” value ([2]; E-64 10 μM added with 20 μM NO) was “no protection”.
In the case of [N]=O [NO, nitric oxide], the “time by which caspase-like activity can decline” value (caspase-like activity [3]; NO exposure) was no more than 120 min, the “time in which caspase-like activity appears” value (caspase-like activity [3]; NO exposure) was no more than 20 min and the “up-regulation of caspase-like activity” value (caspase-like activity [3]; NO exposure at 50-100 micromolar) was 2-3 fold. For the same compound, the “expression of a death specific protein” value (ScDSP-1) was “induce expression of a death specific protein”, the “Absorbance of colorimetric caspase cleavage product, caspase 3” value (“Absorbance … caspase 3” below) (caspase 3; [5]) was 0.014 and the “Upregulation vs. control (fold), caspase 3” value (caspase 3; [5]) was 14 fold. The “Absorbance … caspase 3” value (caspase 3; [6]) was 0.001, the “Upregulation vs. control (fold), caspase 3” value (caspase 3; [6]) was 1 fold and the “Absorbance … caspase 3” value (caspase 3; Experiment 2, 50 uM NO, 20 min) was 0.016. For the same compound, the “Upregulation vs. control (fold), caspase 3” value (caspase 3; Experiment 2, 50 uM NO, 20 min) was 2.7 fold, the “Absorbance … caspase 3” value (caspase 3; Experiment 2, 50 uM NO, 40 min) was 0.016 and the “Upregulation vs. control (fold), caspase 3” value (caspase 3; Experiment 2, 50 uM NO, 40 min) was 2.7 fold. The “Absorbance … caspase 3” value (caspase 3; Experiment 2, 50 uM NO, 60 min) was 0.013, the “Upregulation vs. control (fold), caspase 3” value (caspase 3; Experiment 2, 50 uM NO, 60 min) was 2.2 fold and the “Absorbance of colorimetric caspase cleavage product, caspase 8” value (“Absorbance … caspase 8” below) (caspase 8; [5]) was 0.017. For the same compound, the “Upregulation vs. control (fold), caspase 8” value (caspase 8; [5]) was 2.4 fold, the “Absorbance … caspase 8” value (caspase 8; [6]) was 0.006 and the “Upregulation vs. control (fold), caspase 8” value (caspase 8; [6]) was 0.9 fold. For the same compound, the “Absorbance … caspase 8” value (caspase 8; Experiment 2, 50 uM NO, 20 min) was 0.021, the “Upregulation vs. control (fold), caspase 8” value (caspase 8; Experiment 2, 50 uM NO, 20 min) was 2.1 fold and the “Absorbance … caspase 8” value (caspase 8; Experiment 2, 50 uM NO, 40 min) was 0.019. For the same compound, the “Upregulation vs. control (fold), caspase 8” value (caspase 8; Experiment 2, 50 uM NO, 40 min) was 1.9 fold, the “Absorbance … caspase 8” value (caspase 8; Experiment 2, 50 uM NO, 60 min) was 0.018 and the “Upregulation vs. control (fold), caspase 8” value (caspase 8; Experiment 2, 50 uM NO, 60 min) was 1.8 fold. The “cell counts of surviving cells (recovery)” value ([2]; 10 μM, T=5 days) was “increased to greater than pre-treatment numbers”, the intact cells present ([2]; 100 μM, 1 day post-treatment) was “no intact cells were present” and the cell death ([2]; 100 μM, 24 hours) was “complete cell death”. For the same compound, the intact cells present ([2]; 100 μM, 2 days post-treatment) was “no intact cells were present”, the mortality at 10 µM ([2]; Karenia brevis, 10 μM, second trial (FIG. 3), read-out: mortality / reduction of intact cells from pre-treatment numbers) was roughly 50% and the mortality at 20 µM ([2]; Karenia brevis, 20 μM NO (FIG. 4)) was roughly 50%. For the same compound, the “time in which response to low concentrations occurs” value ([2]; low concentrations) was no more than 24 h and the “effect on intact cell numbers” value ([2]; lower concentrations, 1 μM or less (0.1 μM, 1 μM)) was “no effect”.
For Ac-DEVD-CHO, the “effect on increase in caspase-like activity” value (caspase-like activity [4]) is listed as “prevented increase in caspase-like activity”.
